Experimental data published in patent US11471414B2, “Compositions and methods for the treatment and prophylaxis of surgical site infections” (Polypid Ltd., priority 2014, dated 2022).

Tested on: Staphylococcus aureus (ATCC 29213) preformed biofilm
Assay: MBEC Physiology and Genetics Assay, eradication of an established biofilm
Type: cell-based
Protocol: The effectiveness of tri-calcium phosphate granules coated with a matrix composition according to embodiments of the invention in eradicating established biofilm was measured using the MBEC™ (Minimum Biofilm Eradication Concentration) Physiology and Genetics Assay.
MBEC™ Test Method Overview: MBEC™ test method specifies the operational parameters required to grow and treat different bacterial biofilms in a high throughput screening assay. The assay device consists of a plastic lid with ninety-six (96) pegs and a corresponding receiver plate with ninety-six (96) individual wells that have a maximum 200 μL working volume. Biofilm is established on the pegs in a batch culture based model (i.e., no flow of nutrients into or out of an individual well) with gentle mixing. The established biofilm is transferred to a new receiver plate for disinfectant efficacy testing.
Test Organisms: Staphylococcus aureus (an osteomyelitis-related strains); source: ATCC
29213; Dilution/Challenge Media: 1,000×TSB+10% human serum 24 hrs; Growth Media/agar: Tryptic Soy Broth/Tryptic Soy agar for 24 hrs Aerobic cond.
TEST METHOD overview: The experimental process for high-throughput antimicrobial susceptibility testing using the hydroxyapatite coated MBEC™ P&G assay. This standard protocol was broken into a series of small steps, each of which is detailed in the sections below.
Using a cryogenic stock (at −70° C.), a first sub-culture of Staphylococcus aureus was streaked out on OSA (organism specific agar). The plates were incubated at appropriate growth conditions for 20±2.0 hours and further stored at 4° C.
A second sub-culture taken from the first sub-culture was streaked out on OSA. The plates were incubated at appropriate growth conditions for 20±2.0 hours. An isolated colony from the second sub-culture was aseptically removed from the OSA plate and inoculated into 50 mL of sterile bacterial liquid growth broth, followed by incubation appropriate growth conditions for 20±2.0 hours (at 150 rpm).
The inoculum was adjusted to an approximate cell density of 10^6 CFU/mL.
150 μL of the remaining diluted organism were placed in each of the corresponding wells of an MBEC™ P&G device except the sterility controls (Table 5). The device was placed on an orbital shaker (110 RPM) in a humidified incubator at 37±1° C.
The biofilm formed on the lid of the MBEC device was rinsed by dipping the lid into saline (˜30 seconds) to remove planktonic cells. The lid was then put on top of the challenge plate and incubated on a rotary shaker at 110 rpm at 35±2° C. for 24±2 hours.
After incubation (specified above), planktonic cells were rinsed off the biofilm by dipping the lid into saline (˜20-30 seconds). The lid was then transferred to a neutralizer/recovery plate and put in a sonicator (˜30 minutes) to dislodge surviving biofilm.
Following sonication, 100 μL from each well of the MBEC™ plate, were put into the first 12 empty wells of the first row of a 96 well-micro titer plate and were further diluted by 10 fold down each of the 8 rows (10^0-10^7 dilution). 5 μL from each well were then used for spotting prepared OSA plates. The agar plates were incubated at 37±1° C. and counted after approximately 24-48 hours of incubation. The arithmetic mean of the number of colonies counted on the plates was calculated.
100 μL of the sterile neutralizer was added to each well of the recovery plate to top up the volume back to 200 μL. The refilled plate is incubated at 35±2° C. for 24±2 hours.
Comparator MBEC results were determined following the 24±2 hour incubation using the plate reader.
The log density for one peg was calculated as follows: LOG10(CFU/peg)=LOG10[(X/B)(D)] where: X=mean CFU; B=volume plated (0.02 mL) and D=dilution.
The overall biofilm accumulation was determined by calculating the mean of the log densities calculated.
LOG10 reduction for each dilution was calculated as follows: LOG10 Reduction=Mean LOG10 Growth Control−Mean LOG10 Test Sample.

## Gentamicin
D 0.5
  Log Reduction (Log R) vs. GC (growth control): 1.11
D 0.5 (μg)
  Average Log10 CFU/peg recoveries: 3.48 Log10 CFU/peg
D 1.0
  Log Reduction (Log R) vs. GC (growth control): 1.38
D 1.0 (μg)
  Average Log10 CFU/peg recoveries: 3.21 Log10 CFU/peg
D 2.0
  Log Reduction (Log R) vs. GC (growth control): 2.90
D 2.0 (μg)
  Average Log10 CFU/peg recoveries: 1.69 Log10 CFU/peg
D 4.0
  Log Reduction (Log R) vs. GC (growth control): 3.29
D 4.0 (μg)
  Average Log10 CFU/peg recoveries: 1.31 Log10 CFU/peg
D 8.0
  Log Reduction (Log R) vs. GC (growth control): 4.59
D 8.0 (μg)
  Average Log10 CFU/peg recoveries: 0.00 Log10 CFU/peg
D 16
  Log Reduction (Log R) vs. GC (growth control): 4.59
D 16 (μg)
  Average Log10 CFU/peg recoveries: 0.00 Log10 CFU/peg
D 32
  Log Reduction (Log R) vs. GC (growth control): 4.59
D 32 (μg)
  Average Log10 CFU/peg recoveries: 0.00 Log10 CFU/peg
